One block for each compound: values may come before it.
Tests used:
[1] = tested on: cholesterol synthesis; conditions: disclosed by Nakatani, Farmashia 1988; cited from earlier work
[2] = target: T1, HMG-CoA reductase (Rattus norvegicus, UniProt P51639); experiment: HMG-CoA reductase inhibitory activity (rat liver microsome); assay type: biochemical, rat (Sprague-Dawley); conditions: [3-^14 C]HMG-CoA, 37° C., 30 minutes, read-out: HMG-CoA reductase inhibitory activity IC50 (50% inhibition concentration)
T1 construct: Liver microsomes was prepared by using Sprague-Dawley rats; from tissue; host or cells: liver microsomes of Sprague-Dawley rats fed 2% cholestyramine diet
T1 sequence (P51639 1-887): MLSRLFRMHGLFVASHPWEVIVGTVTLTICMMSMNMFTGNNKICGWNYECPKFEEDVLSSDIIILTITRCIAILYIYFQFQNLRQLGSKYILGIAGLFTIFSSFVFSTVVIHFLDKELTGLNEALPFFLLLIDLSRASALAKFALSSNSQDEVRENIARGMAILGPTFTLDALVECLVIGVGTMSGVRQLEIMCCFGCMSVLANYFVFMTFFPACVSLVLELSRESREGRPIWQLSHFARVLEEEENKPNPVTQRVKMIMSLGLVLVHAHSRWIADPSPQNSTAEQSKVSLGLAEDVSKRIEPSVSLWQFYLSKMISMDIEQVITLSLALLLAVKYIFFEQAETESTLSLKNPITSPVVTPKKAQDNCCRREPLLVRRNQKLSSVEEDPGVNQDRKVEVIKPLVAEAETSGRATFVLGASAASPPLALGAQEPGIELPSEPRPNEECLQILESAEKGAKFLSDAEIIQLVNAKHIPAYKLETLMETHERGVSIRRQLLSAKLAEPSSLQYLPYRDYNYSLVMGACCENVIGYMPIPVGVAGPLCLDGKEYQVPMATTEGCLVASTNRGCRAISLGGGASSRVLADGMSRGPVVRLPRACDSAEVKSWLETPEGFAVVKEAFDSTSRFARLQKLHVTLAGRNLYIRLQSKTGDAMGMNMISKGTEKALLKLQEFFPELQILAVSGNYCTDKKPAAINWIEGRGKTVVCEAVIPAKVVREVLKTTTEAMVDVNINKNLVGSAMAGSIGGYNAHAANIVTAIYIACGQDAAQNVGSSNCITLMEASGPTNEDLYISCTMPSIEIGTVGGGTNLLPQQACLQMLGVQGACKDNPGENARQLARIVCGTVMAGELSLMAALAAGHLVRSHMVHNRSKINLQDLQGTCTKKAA
Procedure: [HMG-CoA reductase inhibitory activity]
(1a) Preparation of rat liver microsome
Liver microsomes was prepared by using Sprague-Dawley rats which freely take a general diet containing 2% cholestyramine and water for 2 weeks according to the report of Kuroda et al (Biochim. Biophys. Acta., 486, page 70, 1977). The microsome fraction obtained by centrifuging at 105000× g was washed with a solution containing 15 mM nicotinamide and 2 mM magnesium chloride (in 100 mM potassium phosphate buffer solution, pH 7.4) once. Then, thereto was added equal parts of the buffer solution containing nicotinamide and magnesium chloride to the weight of used liver. The mixture was homogenized, cooled to -80° C., and preserved.
(1b) Measurement of HMG-CoA reductase inhibitory activity
At 0° C., 100 μl of rat liver microsome preserved at -80° C. was melted and diluted with 0.7 ml of cool potassium phosphate buffer (100 mM, pH 7.4). Thereto was added 0.8 ml of 50 mM EDTA solution (the above-mentioned potassium phosphate buffer solution) and 0.4 ml of 100 mM dithiothreitol solution (the above-mentioned potassium phosphate buffer solution) and the mixture was maintained at 0° C. To 1.675 ml of the microsome solution was added 670 μl of 25 mM NADPH solution (the above-mentioned potassium phosphate buffer solution). […] By means of a scintillation counter, specific activity was measured.

[3] = tested on: production of peroxidized lipids in a homogenate of rat brain; experiment: Suppression of production of peroxidized lipids in a homogenate of rat brain (TBA method); assay type: biochemical, rat (SD strain); conditions: 37° C., 30 minutes
Procedure: [Suppression of production of peroxidized lipids in a homogenate of rat brain]
SD strain rats (body weight, about 200 g) were sacrificed by cutting down their heads, and the brains were taken out. The brains were homogenated with a 4-fold amount of 0.05 M phosphate-sodium chloride buffer (pH 7.4) and centrifuged at 1,000× g for 10 minutes. The supernatant was kept at -80° C. for storage.
The supernatant was diluted with a 2-fold amount of the same phosphate-sodium chloride buffer as above, and 0.45 ml of the dilution was combined with 30 μl of ethanol per se (vehicle) or ethanol solution containing a test compound, followed by incubation at 37° C. for 30 minutes. The reaction was terminated by addition of a solution of 0.1% butylhydroxytoluene (BHT) (20 μl) in 25% metaphosphoric acid (125 μl). After deproteinization, the peroxidized lipids in the supernatant were measured by the thiobarbituric acid (TBA) method according to the description by Ohkawa et al.: in Anal. Biochem., Vol. 95, page 351 (1979). The amount of peroxidized lipids produced was compared with that in the vehicle applied group and expressed in % control.

[4] = concentration of test compound 0.01 mM
[5] = concentration of test compound 0.1 mM

Compound: CCC(C)(C)C(=O)O[C@H]1C[C@@H](C)C=C2C=C[C@H](C)[C@H](CC[C@@H]3C[C@@H](O)CC(=O)O3)[C@H]21 [Simarastatin]
- inhibit cholesterol synthesis [1]: inhibit cholesterol synthesis

Compound: CC[C@H](C)C(=O)O[C@H]1C[C@@H](C)C=C2C=C[C@H](C)[C@H](CC[C@@H]3C[C@@H](O)CC(=O)O3)[C@H]21 [Lovastatin]
- inhibit cholesterol synthesis [1]: inhibit cholesterol synthesis
- IC50 [2]: 0.024 µM

- IC50 [2]: 54 µM
Compound: CC(C)(C)c1cc(SC[C@@H](O)C[C@@H](O)CC(=O)O)cc(C(C)(C)C)c1O [Compound No. 3, Sodium (3R,5S)-6-[(3,5-di-tert-butyl-4-hydroxyphenyl)thio]-3,5-dihydroxyhexanoate]
- Inhibitory rate (% control) [3, 4]: 35.7 % control
- Inhibitory rate (% control) [3, 5]: 94.9 % control

Compound: CC[C@H](C)C(=O)O[C@H]1CCC=C2C=C[C@H](C)[C@H](CC[C@@H]3C[C@@H](O)CC(=O)O3)[C@H]21 [Mevastatin]
- inhibit cholesterol synthesis [1]: inhibit cholesterol synthesis

Compound: CC(C)(Sc1cc(C(C)(C)C)c(O)c(C(C)(C)C)c1)Sc1cc(C(C)(C)C)c(O)c(C(C)(C)C)c1 [Probucol]
- Inhibitory rate (% control) [3, 4]: 27.8 % control
- Inhibitory rate (% control) [3, 5]: 58.3 % control

Compound: CC[C@H](C)C(=O)O[C@H]1C[C@H](O)C=C2C=C[C@H](C)[C@H](CC[C@@H](O)C[C@@H](O)CC(=O)O)[C@H]21 [Pravastatin]
- inhibit cholesterol synthesis [1]: inhibit cholesterol synthesis
